From US20060134630A1, “Method for screening for an antimicrobial polypeptide” (Novozymes A/S, priority 2002, published 2006)

Tests used:
Fusarium longypes [1] = experiment: Growth inhibition of Fusarium longypes by AFP diffused into solid media (filter removed); type: cell-based; parameters: key: +: whether or not a clearing zone is present in the top-layer; −: whether or not a clearing zone is present in the top-layer; settings: Fusarium longypes top-layer, acetate filter removed, 0.1% arabinose, 3 days room temperature
Description: The method used in this example is similar to the method described in example 14 with the difference that in this example the acetate filter containing the E.coli origami cells is removed from the arabinose plate before it is overlaid with the fungus Fusarium longypes which is used as an indicator strain.
Additionally, this example is very similar to example 4, with the exception that in the present example AFP is the antimicrobial polypeptide (instead of Plectasin in example 4) and Fusarium longypes is the indicator cells (instead of Bacillus subtilis in example 4). As described in example 14, E. coli origami cells were transformed with pHHA900-AFP and pHHA, respectively and cultured overnight at 37 degrees C on LB-agar plates containing tetracycline (tet), kanamycin (kan) and ampicillin (amp) to select for viable E.coli origami cells comprising said constructs. Two viable E.coli origami colonies containing each of the constructs were selected and used to inoculate a LB-agar plate with tet, kan and amp before culturing said plate for 3 days at 37 degrees C. A cellulose acetate filter was placed on top of the plate and the colonies were striped off with the filter. The filter was then placed on a new LB-agar plate containing 0.1% arabinose with the colonies facing up to induce expression of the AFP. The filter-agar, 0.1% arabinose plate was incubated overnight at 37 degrees C. […]

Fusarium longypes [2] = experiment: Growth inhibition of Fusarium longypes by AFP (filter-agar plate treated with chloroform); type: cell-based; parameters: key: +: whether or not a clearing zone is present in the top-layer; −: whether or not a clearing zone is present in the top-layer; settings: Fusarium longypes top-layer over origami colonies, 0.1% arabinose, 3 days room temperature
Description: E. coli origami cells were transformed with pHHA900-AFP and pHHA, respectively and cultured overnight at 37 degrees C. on LB-agar plates containing tetracycline (tet), kanamycin (kan) and ampicillin (amp) to select for viable origami cells comprising said constructs. Two viable origami colonies containing each of the constructs were selected and used to inoculate 3 other LB-agar plates with tet, kan and amp before culturing said plates for 3 days at 37 degrees C. A cellulose acetate filter (Schleider & Schull) was placed on top of each of the plates and the colonies were striped off with the filters. The filters were then place on new LB-agar plates containing 0.1% arabinose with the colonies facing up to induce expression of the AFP. The filter-agar, 0.1% arabinose plates were incubated overnight at 37 degrees C. before treating them with chloroform as described in example 1. After this a top-layer of 6 ml agar comprising approximately […] Fusarium longypes were poured on top of the chloroform treated filter-agar plate. The plates with top-layer were then incubated for 3 days at room temperature. The pink color of the Fusarium longypes mycelium facilitated the detection of the clearing zones in the top layer. […]

pHHA900-AFP: antifungal protein derived from Aspergillus giganteus, expressed in the cytoplasm (ATYNGKCYKKDNICKYKAQSGKTAICKCYVKKCPRDGAKCEFDSYKGKCYC; UniProt P17737 44-94, looked up)
Clearing zone +/− (Fusarium longypes [1]): +
Clearing zone +/−, Plate treated with chloroform (Fusarium longypes [2]): +
